We go through 29 molecules from US7268152B2, “Glucocorticoid mimetics, methods of making them, pharmaceutical compositions, and uses thereof” (Boehringer Ingelheim Pharmaceuticals, Inc., priority 2002, dated 2007).

For the assay, the target named is T1, human glucocorticoid receptor (GR) complex (Homo sapiens, UniProt P04150).
T1 construct: made in house; host or cells: insect expression system (baculovirus lysate)
T1 sequence (P04150 1-777): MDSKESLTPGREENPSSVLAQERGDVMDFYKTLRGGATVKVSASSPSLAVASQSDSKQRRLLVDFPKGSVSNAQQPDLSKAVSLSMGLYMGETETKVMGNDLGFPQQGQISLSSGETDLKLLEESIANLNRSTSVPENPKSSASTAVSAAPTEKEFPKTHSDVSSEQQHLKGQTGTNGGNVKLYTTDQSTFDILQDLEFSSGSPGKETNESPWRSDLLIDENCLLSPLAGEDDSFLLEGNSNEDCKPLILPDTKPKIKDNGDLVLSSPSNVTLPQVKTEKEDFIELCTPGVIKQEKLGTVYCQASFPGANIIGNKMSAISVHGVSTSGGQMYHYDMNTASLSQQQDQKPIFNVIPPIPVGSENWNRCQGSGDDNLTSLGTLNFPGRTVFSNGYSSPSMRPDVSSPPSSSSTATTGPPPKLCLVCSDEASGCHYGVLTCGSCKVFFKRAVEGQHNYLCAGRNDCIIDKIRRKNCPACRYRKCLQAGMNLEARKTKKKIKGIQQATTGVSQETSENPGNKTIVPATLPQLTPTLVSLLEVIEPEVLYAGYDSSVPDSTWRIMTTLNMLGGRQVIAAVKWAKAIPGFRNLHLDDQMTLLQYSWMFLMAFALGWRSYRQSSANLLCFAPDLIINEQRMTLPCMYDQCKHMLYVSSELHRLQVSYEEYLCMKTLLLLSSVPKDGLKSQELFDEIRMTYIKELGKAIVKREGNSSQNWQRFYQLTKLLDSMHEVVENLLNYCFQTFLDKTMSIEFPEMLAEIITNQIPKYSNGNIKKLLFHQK
The assay is described as follows: Glucocorticoid receptor competitive binding assay (fluorescence polarization). Particulars: competition with TAMRA-labeled dexamethasone. Here is the method:
Compounds of the invention were evaluated for binding to the steroid receptor by a fluorescence polarization competitive binding assay. Detailed descriptions for preparation of recombinant glucocorticoid receptor (GR) complex used in the assay is described in U.S. provisional application No. 60/291,877, filed May 18, 2001, and incorporated herein by reference in its entirety. Preparation of the tetramethyl rhodamine (TAMRA)-labeled dexamethasone probe was accomplished using a standard literature procedure (M. Pons et al., J. Steroid Biochem., 1985, 22, pp. 267-273).
A. Glucocorticoid Receptor Competitive Binding Assay
Step 1. Characterization of the Fluorescent Probe
The wavelengths for maximum excitation and emission of the fluorescent probe should first be measured. An example of such a probe is rhodamine (TAMRA)-labeled dexamethasone.
The affinity of the probe for the steroid receptor was then determined in a titration experiment. The fluorescence polarization value of the probe in assay buffer was measured on an SLM-8100 fluorometer using the excitation and emission maximum values described above. Aliquots of expression vector lysate were added and fluorescence polarization was measured after each addition until no further change in polarization value was observed. Non-linear least squares regression analysis was used to calculate the dissociation constant of the probe from the polarization values obtained for lysate binding to the probe.
Step 2. Screeningfor Inhibitors of Probe Binding
This assay uses fluorescence polarization (FP) to quantitate the ability of test compounds to compete with tetramethyl rhodamine (TAMRA)-labeled dexamethasone for binding to a human glucocorticoid receptor (GR) complex prepared from an insect expression system. The assay buffer was: 10 mM TES, 50 mM KCl, 20 mM Na2MoO4.2H2O, 1.5 mM EDTA, 0.04% w/v CHAPS, 10% v/v glycerol, 1 mM dithiothreitol, pH 7.4. Test compounds were dissolved to 1 mM in neat DMSO and then further diluted to 10×assay concentration in assay buffer supplemented with 10% v/v DMSO. Test compounds were serially diluted at 10×assay concentrations in 10% DMSO-containing buffer in 96-well polypropylene plates. Binding reaction mixtures were prepared in 96-well black Dynex microtiter plates by sequential addition of the following assay components to each well: […] of 10×test compound solution, 85 μL of GR-containing baculovirus lysate diluted 1:170 in assay buffer, and 50 μL of 15 nM TAMRA-labeled dexamethasone. Positive controls were reaction mixtures containing no test compound; negative controls (blanks) were reaction mixtures containing 0.7 μM to 2 μM dexamethasone. The binding reactions were incubated for 1 hour at room temperature and then read for fluorescence polarization in the LJL Analyst set to 550 nm excitation and 580 nm emission, with the Rhodamine 561 dichroic mirror installed. IC50 values were determined by iterative non-linear curve fitting of the FP signal data to a 4-parameter logistic equation.

In general, IC50 refers to the concentration needed to halve the response being measured. Read a low IC50 as inhibition by little substance.

Structures are written as SMILES.

For the molecule `Cc1ccc(F)cc1C(C)(C)CC(O)(Cc1cc(C(F)(F)F)cc(Cl)c1F)C(F)(F)F` (centres unmarked) [2-(3-Chloro-2-fluoro-5-trifluoromethylbenzyl)-1,1,1-trifluoro-4-(5-fluoro-2-methylphenyl)-4-methylpentan-2-ol], the concentration for half-maximal inhibition (IC50) was no more than 100 nM. In turn, `COc1ccccc1C(C)(C)CC(O)(Cc1cc(C)cc(C)c1)C(F)(F)F` (centres unmarked) [2-(3,5-Dimethylbenzyl)-1,1,1-tri fluoro-4-(2-methoxyphenyl)-4-methylpentan-2-ol] registered an IC50 of no more than 100 nM. The result for `CC(C)(CC(O)(Cc1cc(C(F)(F)F)cc(C(F)(F)F)c1)C(F)(F)F)c1cc(F)ccc1O` (centres unmarked) [2-[3-(3,5-Bis-trifluoromethylbenzyl)-4,4,4-trifluoro-3-hydroxy-1,1-dimethylbutyl]-4-fluorophenol] reads no more than 100 nM; that for `CC(C)(CC(O)(Cc1ccc(Cl)c(Cl)c1)C(F)(F)F)c1cc(F)ccc1O` (centres unmarked) [2-[3-(3,4-Dichlorobenzyl)-4,4,4-trifluoro-3-hydroxy-1,1-dimethylbutyl]-4-fluorophenol], no more than 100 nM; that for `CC(C)(CC(O)(Cc1ccc(-c2ccccc2)cc1)C(F)(F)F)c1cc(F)ccc1O` (centres unmarked) [2-(3-Biphenyl-4-ylmethyl-4,4,4-trifluoro-3-hydroxy-1,1-dimethylbutyl)-4-fluorophenol], no more than 100 nM. The result for `COc1ccc(F)cc1C(C)(C)CC(O)(Cc1ccc(C#N)cc1)C(F)(F)F` (centres unmarked) [4-[4-(5-Fluoro-2-methoxyphenyl)-2-hydroxy-4-methyl-2-trifluoromethylpentyl]benzonitrile] reads no more than 100 nM. The result for `CC(C)(CC(O)(Cc1cc(F)cc(C(F)(F)F)c1)C(F)(F)F)c1cc(F)ccc1O` (centres unmarked) [4-Fluoro-2-[4,4,4-trifluoro-3-(3-fluoro-5-trifluoromethylbenzyl)-3-hydroxy-1,1-dimethylbutyl]phenol] reads no more than 100 nM; that for `CC(C)(CC(O)(Cc1ccc(Cl)c(Cl)c1)C(F)(F)F)c1cccc(Cl)c1` (centres unmarked) [4-(3-Chlorophenyl)-2-(3,4-dichlorobenzyl)-1,1,1-trifluoro-4-methylpentan-2-ol], no more than 100 nM. On to `COc1ccc(F)cc1C(C)(C)CC(O)(Cc1ccc(C)c(C)c1)C(F)(F)F` (centres unmarked) [2-(3,4-Dimethylbenzyl)-1,1,1-trifluoro-4-(5-fluoro-2-methoxyphenyl)-4-methylpentan-2-ol], for which the IC50 is no more than 100 nM. `CC(C)(CC(O)(Cc1cc(Cl)cc(Cl)c1)C(F)(F)F)c1ccccc1` (centres unmarked) [2-(3,5-Dichlorobenzyl)-1,1,1-trifluoro-4-methyl-4-phenylpentan-2-ol] returned a half-maximal inhibitory concentration (IC50) of no more than 100 nM.

In turn, `CC(C)(CC(O)(Cc1ccc(Cl)cc1)C(F)(F)F)c1cc(F)ccc1O` (centres unmarked) [2-[3-(4-Chlorobenzyl)-4,4,4-trifluoro-3-hydroxy-1,1-dimethylbutyl]-4-fluorophenol] yielded an IC50 of no more than 100 nM. The result for `COc1ccc(F)cc1C(C)(C)CC(O)(Cc1ccc(Cl)cc1Cl)C(F)(F)F` (centres unmarked) [2-(2,4-Dichlorobenzyl)-1,1,1-trifluoro-4-(5-fluoro-2-methoxyphenyl)-4-methylpentan-2-ol] reads no more than 100 nM; that for `CC(C)(CC(O)(Cc1cc(C(F)(F)F)cc(Cl)c1F)C(F)(F)F)c1cc(F)ccc1O` (centres unmarked) [2-[3-(3-Chloro-2-fluoro-5-trifluoromethylbenzyl)-4,4,4-trifluoro-3-hydroxy-1,1-dimethylbutyl]-4-fluorophenol], no more than 100 nM. The molecule `COc1ccc(F)cc1C(C)(C)CC(O)(Cc1cc(C(F)(F)F)ccc1F)C(F)(F)F` (centres unmarked) [1,1,1-Trifluoro-4-(5-fluoro-2-methoxyphenyl)-2-(2-fluoro-5-trifluoromethylbenzyl)-4-methylpentan-2-ol] came in with an IC50 of no more than 100 nM. The result for `COc1ccc(C(C)(C)CC(O)(Cc2ccc(C#N)cc2Cl)C(F)(F)F)cc1` (centres unmarked) [3-Chloro-4-[2-hydroxy-4-(4-methoxyphenyl)-4-methyl-2-trifluoromethylpentyl]benzonitrile] reads no more than 100 nM; that for `COc1ccc(F)cc1C(C)(C)CC(O)(Cc1cc(F)cc(F)c1)C(F)(F)F` (centres unmarked) [2-(3,5-Difluorobenzyl)-1,1,1-trifluoro-4-(5-fluoro-2-methoxyphenyl)-4-methylpentan-2-ol], no more than 100 nM; that for `COc1ccc(F)cc1C(C)(C)CC(O)(Cc1ccc(-c2ccccc2)cc1)C(F)(F)F` (centres unmarked) [2-Biphenyl-4-ylmethyl-1,1,1-trifluoro-4-(5-fluoro-2-methoxyphenyl)-4-methylpentan-2-ol], no more than 100 nM. The result for `CC(C)(CC(O)(Cc1cc(C(F)(F)F)cc(Cl)c1F)C(F)(F)F)c1ccccc1` (centres unmarked) [2-(3-Chloro-2-fluoro-5-trifluoromethylbenzyl)-1,1,1-trifluoro-4-methyl-4-phenylpentan-2-ol] reads no more than 100 nM; that for `COc1ccc(F)cc1C(C)(C)CC(O)(Cc1cc(Cl)ccc1Cl)C(F)(F)F` (centres unmarked) [2-(2,5-Dichlorobenzyl)-1,1,1-trifluoro-4-(5-fluoro-2-methoxyphenyl)-4-methylpentan-2-ol], no more than 100 nM.

As to `COc1ccc(F)cc1C(C)(C)CC(O)(Cc1ccccc1Br)C(F)(F)F` (centres unmarked) [2-(2-Bromobenzyl)-1,1,1-trifluoro-4-(5-fluoro-2-methoxyphenyl)-4-methylpentan-2-ol], the half-maximal inhibitory concentration (IC50) was no more than 100 nM. As for `Cc1cc(C)cc(CC(O)(CC(C)(C)c2cc(F)ccc2O)C(F)(F)F)c1` (centres unmarked) [2-[3-(3,5-Dimethylbenzyl)-4,4,4-trifluoro-3-hydroxy-1,1-dimethylbutyl]4-fluorophenol], the IC50 is no more than 100 nM. The result for `COc1ccc(F)cc1C(C)(C)CC(O)(Cc1cccc(Br)c1)C(F)(F)F` (centres unmarked) [2-(3-Bromobenzyl)-1,1,1-trifluoro-4-(5-fluoro-2-methoxyphenyl)-4-methylpentan-2-ol] reads no more than 100 nM. Molecule `COc1ccc(F)cc1C(C)(C)CC(O)(Cc1cccc(Cl)c1Cl)C(F)(F)F` (centres unmarked) [2-(2,3-Dichlorobenzyl)-1,1,1-trifluoro-4-(5-fluoro-2-methoxyphenyl)-4-methylpentan-2-ol] yielded a concentration for half-maximal inhibition (IC50) of no more than 100 nM. As to `COc1ccc(F)cc1C(C)(C)CC(O)(Cc1cc(Cl)cc(Cl)c1)C(F)(F)F` (centres unmarked) [2-(3,5-Dichlorobenzyl)-1,1,1-trifluoro-4-(5-fluoro-2-methoxyphenyl)-4-methylpentan-2-ol], the IC50 is no more than 100 nM.

`CC(C)(CC(O)(Cc1ccc(C#N)cc1)C(F)(F)F)c1cc(F)ccc1O` (centres unmarked) [4-[4-(5-Fluoro-2-hydroxyphenyl)-2-hydroxy-4-methyl-2-trifluoromethylpentyl]benzonitrile]: the concentration for half-maximal inhibition (IC50) was no more than 100 nM.

As for `COc1ccc(F)cc1C(C)(C)CC(O)(Cc1ccc(C#N)cc1F)C(F)(F)F` (centres unmarked) [3-Fluoro-4-[4-(5-fluoro-2-methoxyphenyl)-2-hydroxy-4-methyl-2-trifluoromethylpentyl]benzonitrile], the IC50 is no more than 100 nM. As for `CC(C)(CC(O)(Cc1cc(C(F)(F)F)cc(Cl)c1F)C(F)(F)F)c1cc([N+](=O)[O-])cc2c1OCC2` (centres unmarked), the IC50 is no more than 100 nM. The result for `COc1ccc(F)cc1C(C)(C)CC(O)(Cc1cc(F)cc(F)c1F)C(F)(F)F` (centres unmarked) [1,1,1-Trifluoro-4-(5-fluoro-2-methoxyphenyl)-4-methyl-2-(2,3,5-trifluorobenzyl)pentan-2-ol] reads no more than 100 nM.

Turning to `CC(C)(CC(O)(Cc1ccc(O)cc1)C(F)(F)F)c1cc(F)ccc1O` (centres unmarked) [4-Fluoro-2-[4,4,4-trifluoro-3-hydroxy-3-(4-hydroxybenzyl)-1,1-dimethylbutyl]phenol], the half-inhibitory concentration (IC50) is no more than 100 nM.
